# Laboratory results: patent US8183263B2 (priority 2007, dated 2012)
# Test system: HCV replicon
# Assay: HCV replicon replication assay (NPT level by captured ELISA)
# Assay type: cell-based
# Details: Hepatitis C virus, 72 h; Huh-7 HCV replicon-containing cells, three days incubation; read-out: Activity (inhibition of HCV replicon replication)
# Procedure: Compounds claimed herein are tested for the ability to inhibit viral replication of the Hepatitis C replicon in cultured cells in which the HCV replicon construct has been incorporated. The HCV replicon system was described by Bartenschlager, et. al (Science, 285, pp. 110-113 (1999)). The replicon system is predictive of in vivo anti-HCV activity; compounds that are active in humans uniformly evidence activity in the replicon assay.
# In this assay HCV replicon containing cells are treated with different concentrations of the test compound to ascertain the ability of the test compound to suppress replication of the HCV replicon. As a positive control, HCV replicon-containing cells are treated with different concentrations of interferon alpha, a known inhibitor of HCV replication. The replicon assay system includes Neomycin Phosphotransferase (NPT) as a component of the replicon itself in order to detect the transcription of replicon gene products in the host cell. Cells in which the HCV replicon is actively replicating have high levels of NPT; the level of NPT is proportional to HCV replication. […] The NPT level of each sample is measured using a captured ELISA.
# A protocol for testing compounds for the ability to inhibit viral replication of the Hepatitis C replicon cultured cells in which the replicon construct has been incorporated, follows.
# The HCV replicon contains, 5′-3′, the HCV-IRES, the neomycin phosphotransferase (neo) gene, the IRES of encephalomyocarditis virus, which directs translation of HCV sequences NS3 to NS5B, and the 3′-NTR. The sequence of the HCV replicon has been deposited in GenBank (Accession no. AJ242652).
# The replicon is transfected into Huh-7 cells using standard methods such as electroporation.
# The equipment and materials include, but are not limited to, Huh-7 HCV replicon-containing cells, maintenance media (DMEM (Dulbecco's modified Eagle media) supplemented with 10% FBS, L-glutamine, non-essential amino acids, penicillin (100 units/ml), streptomycin (100 micrograms/ml), and 500 micrograms/ml of Geneticin (G418), screening media (DMEM supplemented with 10% FBS, L-glutamine, non-essential amino acids, penicillin (100 units/ml) and streptomycin (100 micrograms/ml)), 96 well tissue culture plates (flat bottom), 96 well plates (U bottom for drug dilution), Interferon alpha for positive control, fixation reagent (such as methanol: acetone), primary antibody (rabbit anti-NPTII), secondary antibody: Eu—N1 1, and enhancement solution.
# HCV replicon-containing cells are rinsed with once PBS once; 2 mls of trypsin are then added. Cells are incubated at 37° C. in a 5% CO2 incubator for 3-5 minutes. 10 mls of complete medium is added to stop the reaction. Cells are blown gently, put into a 15 ml tube, and spun at 1200 rpm for four minutes. The trypsin/medium solution is removed and 5 mls of medium (500 ml DMEM (high glucose)) from BRL catalog #12430-054; 50 mls 10% FBS, 5% Geneticin G418 (50 mg/ml, BRL catalog #10131-035), 5 ml MEM non-essential amino acids (100×BRL #11140-050) and 5 ml pen-strep (BRL #15140-148) is added. The cells and media are mixed carefully
# Cells are plated with screening medium (500 ml DMEM (BRL #21063-029), 50 ml FBS (BRL #10082-147) and 5 ml MEM non-essential amino acid (BRL #11140-050) at 6000-7500 cells/100 μl/well of 96 well plate (6-7.5×10^5 cells/10 ml/plate). Plates are placed into 37° C. 5% CO2 incubator overnight.
# The following morning, drugs (test compounds or interferon alpha) are diluted in 96 well U bottom plates with media or DMSO/media, depending on the final concentration chosen for screening. Generally for 6 concentrations of each test compounds ranging from 10 micromolar to 0.03 micromolar are applied. 100 μl of the test compound dilution is placed in wells of the 96 well plate containing the HCV replicon cells. Media without drug is added to some wells as a negative controls. DMSO is known to affect cell growth. […]
row,Structure (SMILES),EC50 [nM]
1,"CCCCCCCCOc1cc(Nc2nc(-c3cnc(OC)nc3)c(F)s2)ccc1C(F)(F)F [Cmp 88, 5-fluoro-4-(2-methoxypyrimidin-5-yl)-N-(3-(octyloxy)-4-(trifluoromethyl)phenyl)thiazol-2-amine]",< 1000
2,"CN(C)c1ccc(CCCCOc2ccc(Nc3nc(-c4cccnc4)cs3)cc2C(F)(F)F)cc1 [Cmp 89, N-(4-(4-(4-(dimethylamino)phenyl)butoxy)-3-(trifluoromethyl)phenyl)-4-(pyridin-3-yl)thiazol-2-amine]",< 1000
3,"Fc1sc(Nc2ccc(OCCCCc3cccs3)c(C(F)(F)F)c2)nc1-c1cccnc1 [Cmp 90, 5-fluoro-4-(pyridin-3-yl)-N-(4-(4-(thiophen-2-yl)butoxy)-3-(trifluoromethyl)phenyl)thiazol-2-amine]",< 1000
4,"Cc1cccc(OCCCc2ccc(Nc3nc(-c4cccnc4)cs3)cc2C(F)(F)F)c1 [Cmp 91, 4-(pyridin-3-yl)-N-(4-(3-(m-tolyloxy)propyl)-3-(trifluoromethyl)phenyl)thiazol-2-amine]",< 1000
5,"Cc1cccc(OCCCc2ccc(Nc3nc(-c4cccnc4)c(F)s3)cc2C(F)(F)F)c1 [Cmp 92, 5-fluoro-4-(pyridin-3-yl)-N-(4-(3-(m-tolyloxy)propyl)-3-(trifluoromethyl)phenyl)thiazol-2-amine]",< 1000
6,"CCCCCCCc1nc2cc(Nc3nc(-c4cccnc4)c(F)s3)ccc2o1 [Cmp 93, N-(5-fluoro-4-(pyridin-3-yl)thiazol-2-yl)-2-heptylbenzo[d]oxazol-5-amine]",< 1000
7,"CCCCCCCCc1c(F)cc(Nc2nc(-c3cccnc3)cs2)cc1F [Cmp 94, N-(3,5-difluoro-4-octylphenyl)-4-(pyridin-3-yl)thiazol-2-amine]",< 1000
8,"COc1ncc(-c2nc(Nc3ccc(Oc4ccccc4)c(C(F)(F)F)c3)sc2F)cn1 [Cmp 95, 5-fluoro-4-(2-methoxypyrimidin-5-yl)-N-(4-phenoxy-3-(trifluoromethyl)phenyl)thiazol-2-amine]",1000 to 10000
9,"COc1ncc(-c2nc(Nc3ccc(Oc4ccc(C#N)cc4)c(C(F)(F)F)c3)sc2F)cn1 [Cmp 96, 4-(4-(5-fluoro-4-(2-methoxypyrimidin-5-yl)thiazol-2-ylamino)-2-(trifluoromethyl)phenoxy)benzonitrile]",< 1000
10,"Fc1sc(Nc2ccc(Oc3ccc(Cl)cc3)c(C(F)(F)F)c2)nc1-c1cccnc1 [Cmp 97, N-(4-(4-chlorophenoxy)-3-(trifluoromethyl)phenyl)-5-fluoro-4-(pyridin-3-yl)thiazol-2-amine]",< 1000
11,"CCc1ccc(Oc2ccc(Nc3nc(-c4cccnc4)c(F)s3)cc2C(F)(F)F)cc1 [Cmp 98, N-(4-(4-ethylphenoxy)-3-(trifluoromethyl)phenyl)-5-fluoro-4-(pyridin-3-yl)thiazol-2-amine]",< 1000
12,"N#Cc1ccc(Oc2ccc(Nc3nc(-c4cccnc4)c(F)s3)cc2C(F)(F)F)cc1 [Cmp 99, 4-(4-(5-fluoro-4-(pyridin-3-yl)thiazol-2-ylamino)-2-(trifluoromethyl)phenoxy)benzonitrile]",< 1000
13,"CCCCCCCCc1ccc(Nc2nc(-c3ccc(O)nc3)cs2)cc1C(F)(F)F [Cmp 100, 5-(2-(4-octyl-3-(trifluoromethyl)phenylamino)thiazol-4-yl)pyridin-2-ol]",< 1000
14,"CCCCCCCCc1ccc(Nc2nc(-c3ccc(O)nc3)c(F)s2)cc1C(F)(F)F [Cmp 101, 5-(5-fluoro-2-(4-octyl-3-(trifluoromethyl)phenylamino)thiazol-4-yl)pyridin-2-ol]",< 1000
15,FC(F)(F)c1ccc(Nc2nc(-c3cccnc3)cs2)cc1Oc1ccccc1 [Cmp 102],1000 to 10000
16,"FC(F)(F)c1cc(Nc2nc(-c3cccnc3)cs2)ccc1CCCOc1ccc(Cl)cc1 [Cmp 103, N-(4-(3-(4-chlorophenoxy)propyl)-3-(trifluoromethyl)phenyl)-4-(pyridin-3-yl)thiazol-2-amine]",< 1000

row,Structure (SMILES),EC50 [nM]
1,"Fc1sc(Nc2ccc(CCCOc3ccc(Cl)cc3)c(C(F)(F)F)c2)nc1-c1cccnc1 [Cmp 104, N-(4-(3-(4-chlorophenoxy)propyl)-3-(trifluoromethyl)phenyl)-5-fluoro-4-(pyridin-3-yl)thiazol-2-amine]",< 1000
2,"CCCCCCc1ccc(Nc2nc(-c3cccnc3)cs2)cc1C(F)(F)F [Cmp 105, N-(4-hexyl-3-(trifluoromethyl)phenyl)-4-(pyridin-3-yl)thiazol-2-amine]",< 1000
3,"CCCCCCCCc1cc2cc(Nc3nc(-c4cccnc4)cs3)ccc2o1 [Cmp 106, N-(2-octylbenzofuran-5-yl)-4-(pyridin-3-yl)thiazol-2-amine]",< 1000
4,"Cc1ccc(CCCCOc2ccc(Nc3nc(-c4cccnc4)c(F)s3)cc2C(F)(F)F)cc1 [Cmp 107, 5-fluoro-4-(pyridin-3-yl)-N-(4-(4-p-tolylbutoxy)-3-(trifluoromethyl)phenyl)thiazol-2-amine]",< 1000
5,"Fc1sc(Nc2ccc(C(F)(F)F)c(Oc3ccccc3)c2)nc1-c1cccnc1 [Cmp 108, 5-fluoro-N-(3-phenoxy-4-(trifluoromethyl)phenyl)-4-(pyridin-3-yl)thiazol-2-amine]",< 1000
6,"Cc1ccc(CCCCOc2ccc(Nc3nc(-c4cccnc4)c(Cl)s3)cc2C(F)(F)F)cc1 [Cmp 109, 5-chloro-4-(pyridin-3-yl)-N-(4-(4-p-tolylbutoxy)-3-(trifluoromethyl)phenyl)thiazol-2-amine]",< 1000
7,"CCCCCCCCOc1c(F)cc(Nc2nc(-c3cccnc3)cs2)cc1F [Cmp 110, N-(3,5-difluoro-4-(octyloxy)phenyl)-4-(pyridin-3-yl)thiazol-2-amine]",< 1000
8,"CCCCCCCC(=O)c1ccc(Nc2nc(-c3cccnc3)cs2)cc1 [Cmp 111, 1-(4-(4-(pyridin-3-yl)thiazol-2-ylamino)phenyl)octan-1-one]",< 1000
9,CCCCCCc1ccc(Nc2nc(-c3cccnc3)c(F)s2)cc1C(F)(F)F [Cmp 112],< 1000
10,"CCCCCCc1ccc(Nc2nc(-c3cnc(OC)nc3)cs2)cc1C(F)(F)F [Cmp 113, N-(4-hexyl-3-(trifluoromethyl)phenyl)-4-(2-methoxypyrimidin-5-yl)thiazol-2-amine]",< 1000
11,"CCCCCCCCc1cc2ccc(Nc3nc(-c4cccnc4)cs3)cc2o1 [Cmp 114, N-(2-octylbenzofuran-6-yl)-4-(pyridin-3-yl)thiazol-2-amine]",< 1000
12,"CCCCCCCCc1cc2ccc(Nc3nc(-c4ccc(C)nc4)cs3)cc2o1 [Cmp 115, 4-(6-methylpyridin-3-yl)-N-(2-octylbenzofuran-6-yl)thiazol-2-amine]",< 1000
13,"Cc1ccc(OCCCCc2ccc(Nc3nc(-c4cccnc4)c(F)s3)cc2C(F)(F)F)cc1 [Cmp 116, 5-fluoro-4-(pyridin-3-yl)-N-(4-(4-(p-tolyloxy)butyl)-3-(trifluoromethyl)phenyl)thiazol-2-amine]",< 1000
14,"Cc1ccc(OCCCCc2ccc(Nc3nc(-c4cccnc4)cs3)cc2C(F)(F)F)cc1 [Cmp 117, 4-(pyridin-3-yl)-N-(4-(4-(p-tolyloxy)butyl)-3-(trifluoromethyl)phenyl)thiazol-2-amine]",< 1000
15,"Cc1ccc(OCCCc2ccc(Nc3nc(-c4cccnc4)cs3)cc2C(F)(F)F)cc1 [Cmp 118, 4-(pyridin-3-yl)-N-(4-(3-(p-tolyloxy)propyl)-3-(trifluoromethyl)phenyl)thiazol-2-amine]",< 1000
16,"CCCCCCCCOc1c(F)cc(Nc2nc(-c3cccnc3)c(F)s2)cc1F [Cmp 119, N-(3,5-difluoro-4-(octyloxy)phenyl)-5-fluoro-4-(pyridin-3-yl)thiazol-2-amine]",< 1000
